Measurements as given in US11566057B2, “Long-acting co-agonists of the glucagon and GLP-1 receptors” (Merck Sharp & Dohme Corp., priority 2017, dated 2023).
Read-outs that look alike come from different tables or passages of the source. Numbered stars: 1 amine (or outer) side, 2 acyl side, 3 side chain; on linkers, the order of the positions; unused ones are H or OH. Square brackets hold non-standard residues; d marks the D form. Side chains are listed from the residue outwards. Peptide text beside a SMILES is read from it. * marks the point of attachment. C20 diacid = O=C(O)CCCCCCCCCCCCCCCCCCC(=O)*; Phe(4-CH2NH2) = NCc1ccc(C[C@H](N)C(=O)O)cc1; C18 diacid = O=C(O)CCCCCCCCCCCCCCCCC(=O)*; C16 diacid = O=C(O)CCCCCCCCCCCCCCC(=O)*; γGlu = O=C(O)[C@H](CCC(=O)[*:2])N[*:1]; Met(O2) = CS(=O)(=O)CC[C@H](N)C(=O)O; αMeD = C[C@](N)(CC(=O)O)C(=O)O; αMeS = C[C@](N)(CO)C(=O)O; AEEA = NCCOCCOCC(=O)O; Aib = CC(C)(N)C(=O)O

Columns and labels:
human GCGR = molecular target: T1, human GCGR (Homo sapiens, UniProt P47871); assay: cAMP activity assay at the Glucagon receptor (GCGR); type: cell-based; details: for hGCGR/hGLP1R (hTone): ratio of GCGR EC50 to GLP1R EC50
T1 construct: expressed in transfected cells; growth medium holds Blasticidin and Hygromycin
T1 sequence (P47871 26-477): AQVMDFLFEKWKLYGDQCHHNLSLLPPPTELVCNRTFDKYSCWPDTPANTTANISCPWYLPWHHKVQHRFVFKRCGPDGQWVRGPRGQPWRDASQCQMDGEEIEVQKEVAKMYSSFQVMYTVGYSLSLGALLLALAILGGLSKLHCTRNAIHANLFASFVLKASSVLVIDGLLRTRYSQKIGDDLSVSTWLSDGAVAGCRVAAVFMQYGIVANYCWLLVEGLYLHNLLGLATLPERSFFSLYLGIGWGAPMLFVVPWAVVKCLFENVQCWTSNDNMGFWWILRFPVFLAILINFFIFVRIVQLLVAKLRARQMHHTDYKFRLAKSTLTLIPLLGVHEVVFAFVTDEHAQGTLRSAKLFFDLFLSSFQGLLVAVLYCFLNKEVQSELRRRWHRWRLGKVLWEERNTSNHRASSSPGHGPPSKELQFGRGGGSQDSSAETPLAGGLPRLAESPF
In short: (§1)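 Peptides serially diluted from DMSO (10 points) and added to frozen-stock cells bearing human GLP1R (10,000 cells/well) or GCGR (30,000 cells/well), 1 h at RT, dark. EC50 by four-parameter logistic fit of HitHunter cAMPXS luminescence, read following overnight RT incubation.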

human GLP1R = molecular target: T2, human GLP1R (Homo sapiens, UniProt P43220); assay: cAMP activity assay at the GLP-1 receptor (GLP1R); type: cell-based
T2 construct: expressed in transfected cells; growth medium holds Blasticidin and Hygromycin
T2 sequence (P43220 24-463): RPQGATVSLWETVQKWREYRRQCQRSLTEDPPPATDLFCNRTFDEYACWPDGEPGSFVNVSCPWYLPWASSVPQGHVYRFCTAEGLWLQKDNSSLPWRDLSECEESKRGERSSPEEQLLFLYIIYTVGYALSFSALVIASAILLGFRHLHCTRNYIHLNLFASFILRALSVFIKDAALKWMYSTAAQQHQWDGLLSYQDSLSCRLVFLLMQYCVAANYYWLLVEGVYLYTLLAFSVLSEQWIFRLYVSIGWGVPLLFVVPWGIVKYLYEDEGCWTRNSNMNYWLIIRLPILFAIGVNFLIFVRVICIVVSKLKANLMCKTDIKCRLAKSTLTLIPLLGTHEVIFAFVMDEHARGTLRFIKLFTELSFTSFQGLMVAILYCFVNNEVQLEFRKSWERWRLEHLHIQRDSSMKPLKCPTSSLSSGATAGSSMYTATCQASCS
In short: as §1

[1] = summary statement: EC50 at each of the glucagon and GLP-1 receptors, read-out: EC50 at the glucagon receptor
[2] = summary statement: EC50 at each of the glucagon and GLP-1 receptors, read-out: EC50 at the GLP-1 receptor
[3] = cells expressing human GCGR, cAMP production, buffer with or without 20% human serum (not stated which), read-out: GCGR EC50 human

Compound	hGCGR/hGLP1R (hTone) (human GCGR)	EC50 (human GCGR; [1])	EC50 (human GLP1R; [2])	EC50 (human GCGR; [3])	EC50 (human GLP1R; cells expressing human GLP1R, cAMP production, buffer with or without 20% human serum (not stated which), read-out: GLP1R EC50 human)
CC(C)C[C@H](NC(=O)[C@H](Cc1ccc(O)cc1)NC(=O)[C@H](CCCCN)NC(=O)[C@H](CO)NC(=O)[C@H](Cc1ccc(O)cc1)NC(=O)[C@H](CC(=O)O)NC(=O)[C@H](CO)NC(=O)[C@@H](NC(=O)[C@H](Cc1ccccc1)NC(=O)[C@@H](NC(=O)CNC(=O)[C@H](CCC(N)=O)NC(=O)C(C)(C)NC(=O)[C@@H](N)Cc1c[nH]cn1)[C@@H](C)O)[C@@H](C)O)C(=O)N[C@@H](CC(=O)O)C(=O)N[C@@H](C)C(=O)N[C@@H](CCCNC(=N)N)C(=O)N[C@@H](C)C(=O)N[C@@H](C)C(=O)N[C@@H](CCCCNC(=O)COCCOCCNC(=O)COCCOCCNC(=O)CC[C@H](NC(=O)CCCCCCCCCCCCCCCCC(=O)O)C(=O)O)C(=O)N[C@@H](CC(=O)O)C(=O)N[C@@H](Cc1ccccc1)C(=O)N[C@H](C(=O)N[C@@H](CCC(N)=O)C(=O)N[C@@H](Cc1c[nH]c2ccccc12)C(=O)N[C@@H](CC(C)C)C(=O)N[C@@H](CCS(C)(=O)=O)C(=O)N[C@@](C)(CC(=O)O)C(=O)N[C@H](C(=O)O)[C@@H](C)O)C(C)C [TP735] (H-H[Aib]QGTFTSDYSKYLDARAAK([AEEA-AEEA-γGlu-C18 diacid])DFVQWL[Met(O2)][αMeD]T-OH; N-terminus assumed)	1.4	< 5 nM	< 5 nM		
CC(C)C[C@H](NC(=O)[C@H](Cc1ccc(O)cc1)NC(=O)[C@H](CCCCN)NC(=O)[C@H](CO)NC(=O)[C@H](Cc1ccc(O)cc1)NC(=O)[C@H](CC(=O)O)NC(=O)[C@H](CO)NC(=O)[C@@H](NC(=O)[C@H](Cc1ccccc1)NC(=O)[C@@H](NC(=O)CNC(=O)[C@H](CCC(N)=O)NC(=O)C(C)(C)NC(=O)[C@@H](N)Cc1c[nH]cn1)[C@@H](C)O)[C@@H](C)O)C(=O)N[C@@H](CC(=O)O)C(=O)NC(C)(C)C(=O)N[C@@H](CCCNC(=N)N)C(=O)N[C@@H](C)C(=O)N[C@@H](C)C(=O)N[C@@H](CCCCNC(=O)COCCOCCNC(=O)COCCOCCNC(=O)CC[C@H](NC(=O)CCCCCCCCCCCCCCCCCCC(=O)O)C(=O)O)C(=O)N[C@@H](CC(=O)O)C(=O)N[C@@H](Cc1ccccc1)C(=O)N[C@H](C(=O)N[C@@H](CCC(N)=O)C(=O)N[C@@H](Cc1c[nH]c2ccccc12)C(=O)N[C@@H](CC(C)C)C(=O)N[C@@H](CCS(C)(=O)=O)C(=O)N[C@@](C)(CC(=O)O)C(=O)N[C@H](C(N)=O)[C@@H](C)O)C(C)C [TP588] (H-H[Aib]QGTFTSDYSKYLD[Aib]RAAK([AEEA-AEEA-γGlu-C20 diacid])DFVQWL[Met(O2)][αMeD]T-NH2; N-terminus assumed)	0.9	< 5 nM	< 5 nM		
CC(C)C[C@H](NC(=O)[C@H](Cc1ccc(O)cc1)NC(=O)[C@H](CCCCN)NC(=O)[C@H](CO)NC(=O)[C@H](Cc1ccc(O)cc1)NC(=O)[C@H](CC(=O)O)NC(=O)[C@H](CO)NC(=O)[C@@H](NC(=O)[C@H](Cc1ccccc1)NC(=O)[C@@H](NC(=O)CNC(=O)[C@H](CCC(N)=O)NC(=O)[C@](C)(CO)NC(=O)[C@@H](N)Cc1c[nH]cn1)[C@@H](C)O)[C@@H](C)O)C(=O)N[C@@H](CC(=O)O)C(=O)NC(C)(C)C(=O)N[C@@H](CCCNC(=N)N)C(=O)N[C@@H](C)C(=O)N[C@@H](C)C(=O)N[C@@H](CCCCNC(=O)COCCOCCNC(=O)COCCOCCNC(=O)CC[C@H](NC(=O)CCCCCCCCCCCCCCC(=O)O)C(=O)O)C(=O)N[C@@H](CC(=O)O)C(=O)N[C@@H](Cc1ccccc1)C(=O)N[C@H](C(=O)N[C@@H](CCC(N)=O)C(=O)N[C@@H](Cc1c[nH]c2ccccc12)C(=O)N[C@@H](CC(C)C)C(=O)N[C@@H](CCS(C)(=O)=O)C(=O)N[C@@](C)(CC(=O)O)C(=O)N[C@H](C(N)=O)[C@@H](C)O)C(C)C [TP618] (H-H[αMeS]QGTFTSDYSKYLD[Aib]RAAK([AEEA-AEEA-γGlu-C16 diacid])DFVQWL[Met(O2)][αMeD]T-NH2)	0.1	< 5 nM	< 5 nM	0.36 nM	
CC(C)C[C@H](NC(=O)[C@H](Cc1ccc(O)cc1)NC(=O)[C@H](CCCCN)NC(=O)[C@H](CO)NC(=O)[C@H](Cc1ccc(O)cc1)NC(=O)[C@H](CC(=O)O)NC(=O)[C@H](CO)NC(=O)[C@@H](NC(=O)[C@H](Cc1ccccc1)NC(=O)[C@@H](NC(=O)CNC(=O)[C@H](CCC(N)=O)NC(=O)C(C)(C)NC(=O)[C@@H](N)Cc1c[nH]cn1)[C@@H](C)O)[C@@H](C)O)C(=O)N[C@@H](CC(=O)O)C(=O)N[C@@H](C)C(=O)N[C@@H](CCCNC(=N)N)C(=O)N[C@@H](C)C(=O)N[C@@H](C)C(=O)N[C@@H](Cc1ccc(CNC(=O)COCCOCCNC(=O)COCCOCCNC(=O)CC[C@H](NC(=O)CCCCCCCCCCCCCCCCC(=O)O)C(=O)O)cc1)C(=O)N[C@@H](CC(=O)O)C(=O)N[C@@H](Cc1ccccc1)C(=O)N[C@H](C(=O)N[C@@H](CCC(N)=O)C(=O)N[C@@H](Cc1c[nH]c2ccccc12)C(=O)N[C@@H](CC(C)C)C(=O)N[C@@H](CCS(C)(=O)=O)C(=O)N[C@@](C)(CC(=O)O)C(=O)N[C@H](C(N)=O)[C@@H](C)O)C(C)C [TP636] (H-H[Aib]QGTFTSDYSKYLDARAA[Phe(4-CH2NH2)]([AEEA-AEEA-γGlu-C18 diacid])DFVQWL[Met(O2)][αMeD]T-NH2; N-terminus assumed)	0.2	< 5 nM	< 5 nM		0.52 nM
CC(C)C[C@H](NC(=O)[C@H](Cc1ccc(O)cc1)NC(=O)[C@H](CCCCN)NC(=O)[C@H](CO)NC(=O)[C@H](Cc1ccc(O)cc1)NC(=O)[C@H](CC(=O)O)NC(=O)[C@H](CO)NC(=O)[C@@H](NC(=O)[C@H](Cc1ccccc1)NC(=O)[C@@H](NC(=O)CNC(=O)[C@H](CCC(N)=O)NC(=O)[C@](C)(CO)NC(=O)[C@@H](N)Cc1c[nH]cn1)[C@@H](C)O)[C@@H](C)O)C(=O)N[C@@H](CC(=O)O)C(=O)N[C@@H](C)C(=O)N[C@@H](CCCNC(=N)N)C(=O)N[C@@H](C)C(=O)N[C@@H](C)C(=O)N[C@@H](CCCCNC(=O)COCCOCCNC(=O)COCCOCCNC(=O)CC[C@H](NC(=O)CCCCCCCCCCCCCCC(=O)O)C(=O)O)C(=O)N[C@@H](CC(=O)O)C(=O)N[C@@H](Cc1ccccc1)C(=O)N[C@H](C(=O)N[C@@H](CCC(N)=O)C(=O)N[C@@H](Cc1c[nH]c2ccccc12)C(=O)N[C@@H](CC(C)C)C(=O)N[C@@H](CCS(C)(=O)=O)C(=O)N[C@@](C)(CC(=O)O)C(=O)N[C@H](C(N)=O)[C@@H](C)O)C(C)C [TP614] (H-H[αMeS]QGTFTSDYSKYLDARAAK([AEEA-AEEA-γGlu-C16 diacid])DFVQWL[Met(O2)][αMeD]T-NH2; N-terminus assumed)	0.6	< 5 nM	< 5 nM	0.86 nM	
CC(C)C[C@H](NC(=O)[C@H](Cc1ccc(O)cc1)NC(=O)[C@H](CCCCN)NC(=O)[C@H](CO)NC(=O)[C@H](Cc1ccc(O)cc1)NC(=O)[C@H](CC(=O)O)NC(=O)[C@H](CO)NC(=O)[C@@H](NC(=O)[C@H](Cc1ccccc1)NC(=O)[C@@H](NC(=O)CNC(=O)[C@H](CCC(N)=O)NC(=O)C(C)(C)NC(=O)[C@@H](N)Cc1c[nH]cn1)[C@@H](C)O)[C@@H](C)O)C(=O)N[C@@H](CC(=O)O)C(=O)N[C@@H](C)C(=O)N[C@@H](CCCNC(=N)N)C(=O)N[C@@H](C)C(=O)N[C@@H](C)C(=O)N[C@@H](CCC(N)=O)C(=O)N[C@@H](CC(=O)O)C(=O)N[C@@H](Cc1ccccc1)C(=O)N[C@H](C(=O)N[C@@H](CCC(N)=O)C(=O)N[C@@H](Cc1c[nH]c2ccccc12)C(=O)N[C@@H](CC(C)C)C(=O)N[C@@H](CCS(C)(=O)=O)C(=O)N[C@@H](Cc1ccc(CNC(=O)COCCOCCNC(=O)COCCOCCNC(=O)CC[C@H](NC(=O)CCCCCCCCCCCCCCCCCCC(=O)O)C(=O)O)cc1)C(=O)N[C@H](C(N)=O)[C@@H](C)O)C(C)C [TP605] (H-H[Aib]QGTFTSDYSKYLDARAAQDFVQWL[Met(O2)][Phe(4-CH2NH2)]([AEEA-AEEA-γGlu-C20 diacid])T-NH2)		< 5 nM	< 5 nM		
CC(C)C[C@H](NC(=O)[C@H](Cc1ccc(O)cc1)NC(=O)[C@H](CCCCN)NC(=O)[C@H](CO)NC(=O)[C@H](Cc1ccc(O)cc1)NC(=O)[C@H](CC(=O)O)NC(=O)[C@H](CO)NC(=O)[C@@H](NC(=O)[C@H](Cc1ccccc1)NC(=O)[C@@H](NC(=O)CNC(=O)[C@H](CCC(N)=O)NC(=O)C(C)(C)NC(=O)[C@@H](N)Cc1c[nH]cn1)[C@@H](C)O)[C@@H](C)O)C(=O)N[C@@H](CC(=O)O)C(=O)N[C@@H](C)C(=O)N[C@@H](CCCNC(=N)N)C(=O)N[C@@H](C)C(=O)N[C@@H](C)C(=O)N[C@@H](Cc1ccc(CNC(=O)COCCOCCNC(=O)CC[C@H](NC(=O)CCCCCCCCCCCCCCCCC(=O)O)C(=O)O)cc1)C(=O)N[C@@H](CC(=O)O)C(=O)N[C@@H](Cc1ccccc1)C(=O)N[C@H](C(=O)N[C@@H](CCC(N)=O)C(=O)N[C@@H](Cc1c[nH]c2ccccc12)C(=O)N[C@@H](CC(C)C)C(=O)N[C@@H](CC(C)C)C(=O)N[C@@H](CC(=O)O)C(=O)N[C@H](C(N)=O)[C@@H](C)O)C(C)C [TP635] (H-H[Aib]QGTFTSDYSKYLDARAA[Phe(4-CH2NH2)]([AEEA-γGlu-C18 diacid])DFVQWLLDT-NH2)	0.2	< 5 nM	< 5 nM	0.46 nM	
